Experimental data: patent publication US20130316027A1, “ANTIMICROBIAL COMPOSITION” (priority 2011, published 2013)

What was measured:
FCV (Feline Calcivirus) = assay: Virucidal suspension test (EN14476), viral kill of FCV; assay type: cell-based, Feline Calicivirus; conditions: contact time five minutes, clean conditions (bovine albumin)
Method: (§1) The virucidal activity of various test solutions were measured using the following protocol.
(§2) A standard EST protocol (EN14476) was followed for the evaluation of activity of antiviral actives in suspension test. Antiviral activity of actives was tested in clean conditions.
(§3) Clean conditions: To create clean conditions, 0.3 g of bovine albumin fraction V was dissolved in 100 ml of water and sterilised by passing the solution through a 0.2 μm filter).
(§4) Preparation of test mixture: To prepare the test mixture, 1 ml of interfering substance (Bovine Albumin) was pipetted into a suitable container, followed by addition of 1 ml of test virus suspension. To this, 8 ml of product test solution was added. At the end of chosen contact time period, 100 μl of the test mixture was added to resin column. Centrifugation of microspin column (735×g, 2 min). The elutant was diluted up to 10^−6 in ice cold virus growth medium. The infectivity of each dilution was measured by TCID50 using the Spaerman-Karber formula. Titration of Virus: Monolayers of cells were grown in 96-well tissue-culture plates (Costar) at 37° C. in an atmosphere of 95% air and 5% carbon dioxide (CO2). Tenfold dilutions of virus suspension were prepared in virus growth medium. One hundred microlitres of each dilution was added to five replicate wells in 96-well tissue-culture plates. Cell controls were included on each plate. Plates were incubated at 37° C. in an atmosphere of 95% air/5% CO2. Cultures were observed daily for viral cytopathic effect for a period of seven days after which they were discarded. The virus titre was calculated by TCID50 (Tissue culture infective dose) using the Spaerman-Karber formula.
(§5) Negative logarithm of the 50% end point=Negative logarithm of the highest virus concentration used−[(Sum of % affected at each dilution/100−0.5)×([…])]
Various compositions as shown in Table-1 were prepared and their virucidal activity was measured using the procedure given earlier. […]
Various compositions as shown in Table-4 were prepared and their virucidal activity was measured using the procedure given earlier. […]

[1] = tested on: RSV (Respiratory syncitial virus); assay: Virucidal suspension test (EN14476), virus kill of RSV; assay type: cell-based; conditions: contact time five minutes, clean conditions (bovine albumin)
Method: as §1, §2, §3, §4, §5
Various compositions as shown in Table-2 were prepared and their virucidal activity was measured using the procedure given earlier. […]
Various compositions as shown in Table-5 were prepared and their virucidal activity was measured using the procedure given earlier. […]

MS2 Phage = assay: Virucidal suspension test (EN14476), virus kill of MS-2 bacteriophage; assay type: cell-based; conditions: contact time five minutes, clean conditions (bovine albumin), MS2 Phage control 6.36, Table 3
Method: as §1, §2, §3
Preparation of test mixture: To prepare the test mixture, 1 ml of interfering substance (Bovine Albumin) was pipetted into a suitable container, followed by addition of 1 ml of test virus suspension. To this, 8 ml of product test solution was added. At the end of chosen contact time period, 100 μl of the test mixture was added to resin column. Centrifugation of microspin column (735×g, 2 min). The elutant was diluted up to 10^−6 in ice cold virus growth medium. The infectivity of each dilution was measured by TCID50 using the Spaerman-Karber formula. Titration of Virus: Monolayers of cells were grown in 96-well tissue-culture plates (Costar) at 37° C. in an atmosphere of 95% air and 5% carbon dioxide (CO2). […] The virus titre was calculated by TCID50 (Tissue culture infective dose) using the Spaerman-Karber formula. […]
Various compositions as shown in Table-3 were prepared and their virucidal activity was measured using the procedure given earlier. […]

Compound | amount of virus remaining, Log TCID50/0.1 ml (FCV (Feline Calcivirus); FCV Control 4.50, Table 1) [Log TCID50/0.1 ml] | amount of virus remaining, Log TCID50/0.1 ml ([1]; RSV Control 5.00, Table 2) [Log TCID50/0.1 ml] | amount of virus remaining, Log TCID50/0.1 ml (MS2 Phage) [Log TCID50/0.1 ml] | amount of virus remaining, Log TCID50/0.1 ml (FCV (Feline Calcivirus); FCV Control 5.50, Table 4) [Log TCID50/0.1 ml] | amount of virus remaining, Log TCID50/0.1 ml ([1]; RSV Control 4.70, Table 5) [Log TCID50/0.1 ml]
COc1cc(/C=C/C(=O)CC(=O)/C=C/c2ccc(O)c(OC)c2)ccc1O [Example 3, Curcumin] | 3.40 | 4.65 | – | – | –
benzalkonium chloride [Example 2] | 3.25 | 2.50 | – | – | –
benzalkonium chloride [Example 10] | – | – | 1.94 | 3.10 | 3.90
